From patent US10913753B2, “Thienopyridine carboxamides as ubiquitin-specific protease inhibitors” (FORMA Therapeutics, Inc., priority 2016, dated 2021)

Assays:
USP25 = USP25 (Homo sapiens (Human), UniProt Q9UHP3); assay: Ubiquitin-Rhodamine 110 Assay for USP25 Activity; assay type: biochemical
Method in brief: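 USP25-His6 (75 pM) preincubated 30 min with compound (25 μM to 1.3 nM, 10-point 3-fold), then Ub-Rh110 added; 45 min at room temperature in pH 8.0 Tris buffer with BME, BGG, Triton X-100, stopped with 10 mM citric acid. Fluorescence 485/535 nm; % inhibition vs no-enzyme and DMSO controls, IC50 by 4-parameter logistic fit.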

USP28 = USP28 (Homo sapiens (Human), UniProt Q96RU2); assay: Ubiquitin-Rhodamine 110 Assay for USP28 Activity; assay type: biochemical
Method in brief: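 Single-point screen at 10 μM, 90 min; follow-up dose-response (25 μM top, 3-fold) with 75 pM USP28 (1-1077)-TEV-6*His, 30 min compound preincubation, Ub-Rh110 substrate for 20 min at room temperature, citric acid stop. Buffer pH 8.0 Tris; fluorescence 485/535 nm; IC50 by 4-parameter logistic fit of % inhibition.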

USP25, sequence (Q9UHP3 whole entry): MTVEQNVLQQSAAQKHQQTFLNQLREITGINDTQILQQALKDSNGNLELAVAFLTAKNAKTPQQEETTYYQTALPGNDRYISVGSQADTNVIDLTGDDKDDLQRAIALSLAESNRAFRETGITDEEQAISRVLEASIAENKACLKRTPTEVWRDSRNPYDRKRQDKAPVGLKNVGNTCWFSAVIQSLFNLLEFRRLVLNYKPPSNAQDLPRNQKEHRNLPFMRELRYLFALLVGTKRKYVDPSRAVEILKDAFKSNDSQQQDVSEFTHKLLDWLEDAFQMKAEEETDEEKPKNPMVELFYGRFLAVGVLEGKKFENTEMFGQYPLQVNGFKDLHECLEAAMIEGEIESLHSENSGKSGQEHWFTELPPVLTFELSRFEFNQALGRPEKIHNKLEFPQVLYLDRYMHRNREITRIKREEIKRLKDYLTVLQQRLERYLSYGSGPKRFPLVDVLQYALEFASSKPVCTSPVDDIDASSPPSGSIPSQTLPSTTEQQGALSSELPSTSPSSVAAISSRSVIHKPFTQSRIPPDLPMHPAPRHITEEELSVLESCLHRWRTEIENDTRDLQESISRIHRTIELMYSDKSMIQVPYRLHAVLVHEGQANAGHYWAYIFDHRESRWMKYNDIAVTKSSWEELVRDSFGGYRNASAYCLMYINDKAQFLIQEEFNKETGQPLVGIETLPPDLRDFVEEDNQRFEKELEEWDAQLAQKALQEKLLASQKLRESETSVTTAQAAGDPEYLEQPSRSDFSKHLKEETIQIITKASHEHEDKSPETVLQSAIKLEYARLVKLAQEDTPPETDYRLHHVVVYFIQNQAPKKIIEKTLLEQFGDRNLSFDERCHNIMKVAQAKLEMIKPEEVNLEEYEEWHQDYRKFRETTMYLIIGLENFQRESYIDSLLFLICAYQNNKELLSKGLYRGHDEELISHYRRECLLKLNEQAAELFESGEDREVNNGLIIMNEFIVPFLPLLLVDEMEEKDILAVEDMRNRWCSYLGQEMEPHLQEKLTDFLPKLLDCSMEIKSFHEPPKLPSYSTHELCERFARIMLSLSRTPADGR
USP28, sequence (Q96RU2 whole entry): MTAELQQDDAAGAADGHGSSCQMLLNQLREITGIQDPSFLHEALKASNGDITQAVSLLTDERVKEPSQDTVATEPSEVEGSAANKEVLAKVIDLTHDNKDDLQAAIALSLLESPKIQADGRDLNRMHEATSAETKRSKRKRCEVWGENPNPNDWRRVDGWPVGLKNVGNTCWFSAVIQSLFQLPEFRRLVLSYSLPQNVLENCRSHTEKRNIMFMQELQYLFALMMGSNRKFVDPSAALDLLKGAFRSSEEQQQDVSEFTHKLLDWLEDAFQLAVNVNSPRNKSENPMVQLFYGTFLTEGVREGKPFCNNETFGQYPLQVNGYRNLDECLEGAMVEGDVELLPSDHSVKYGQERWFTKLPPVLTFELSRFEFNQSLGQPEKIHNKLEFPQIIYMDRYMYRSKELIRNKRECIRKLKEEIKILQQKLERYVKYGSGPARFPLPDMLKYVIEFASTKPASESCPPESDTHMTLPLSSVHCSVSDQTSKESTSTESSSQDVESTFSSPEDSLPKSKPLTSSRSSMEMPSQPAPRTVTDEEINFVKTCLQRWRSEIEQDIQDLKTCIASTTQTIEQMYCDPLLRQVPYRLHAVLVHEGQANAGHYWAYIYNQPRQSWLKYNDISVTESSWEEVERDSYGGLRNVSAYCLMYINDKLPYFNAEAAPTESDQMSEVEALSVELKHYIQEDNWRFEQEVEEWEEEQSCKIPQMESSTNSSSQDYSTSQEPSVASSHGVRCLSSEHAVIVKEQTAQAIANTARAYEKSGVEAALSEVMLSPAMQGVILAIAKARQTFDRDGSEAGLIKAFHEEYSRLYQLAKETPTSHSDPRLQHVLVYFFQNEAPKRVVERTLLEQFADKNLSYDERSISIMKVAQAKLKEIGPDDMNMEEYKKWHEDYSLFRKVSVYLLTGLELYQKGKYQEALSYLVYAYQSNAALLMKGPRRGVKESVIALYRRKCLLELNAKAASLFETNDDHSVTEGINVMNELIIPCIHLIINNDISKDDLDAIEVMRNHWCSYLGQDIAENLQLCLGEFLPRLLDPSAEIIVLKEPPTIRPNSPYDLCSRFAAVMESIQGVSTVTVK

| SMILES | IC50 (USP25) [µM] | IC50 (USP28) [µM] |
| --- | --- | --- |
| CN(C)c1ccc2c(N)c(C(=O)NCCc3ccc(N4CCNCC4)cc3)sc2n1 [Example I-186, 3-Amino-6-(dimethylamino)-N-(4-(piperazin-1-yl)phenethyl)thieno[2,3-b]pyridine-2-carboxamide] | 10 to 25 | 2 to 10 |
| CCNc1ccc2c(N)c(C(=O)NCCc3ccc(N4CCNCC4)cc3)sc2n1 [Example I-188] | 0.2 to 2 | < 0.2 |
| CC(C)Nc1ccc2c(N)c(C(=O)NCCc3ccc(N4CCNCC4)cc3)sc2n1 [Example I-189] | 2 to 10 | 0.2 to 2 |
| COc1ccc2c(N)c(C(=O)NCCc3ccc(N4CCNCC4)cc3)sc2n1 [Example I-190, 3-Amino-6-methoxy-N-(4-(piperazin-1-yl)phenethyl)thieno[2,3-b]pyridine-2-carboxamide] | 0.2 to 2 | 0.2 to 2 |
| CCOc1ccc2c(N)c(C(=O)NCCc3ccc(N4CCNCC4)cc3)sc2n1 [Example I-191] | 2 to 10 | 0.2 to 2 |
| CC(C)Oc1ccc2c(N)c(C(=O)NCCc3ccc(N4CCNCC4)cc3)sc2n1 [Example I-192] | 2 to 10 | 0.2 to 2 |
| Nc1c(C(=O)NCCc2ccc(N3CCNCC3)cc2)sc2nc(OC(F)F)ccc12 [Example I-193, 3-Amino-6-(difluoromethoxy)-N-(4-(piperazin-1-yl)phenethyl)thieno[2,3-b]pyridine-2-carboxamide] | 0.2 to 2 | < 0.2 |
| CNc1ccc2c(N)c(C(=O)NCCc3ccc(N4CCN(C)CC4)cc3)sc2n1 [Example I-195] | 0.2 to 2 | < 0.2 |
| CNc1ccc2c(N)c(C(=O)NCCc3ccc(C4CCNCC4)cc3)sc2n1 [Example I-196] | 0.2 to 2 | 0.2 to 2 |
| Cc1nc2sc(C(=O)NCCc3ccc(N4CCNCC4)cc3)c(N)c2cc1C1CC1 [Example I-197, 3-Amino-5-cyclopropyl-6-methyl-N-(4-(piperazin-1-yl)phenethyl)thieno[2,3-b]pyridine-2-carboxamide] | 10 to 25 | 2 to 10 |
| Cc1nc2sc(C(=O)NCCc3ccc(N4CCNCC4)cc3)c(N)c2cc1N [Example I-198, 3,5-Diamino-6-methyl-N-(4-(piperazin-1-yl)phenethyl)thieno[2,3-b]pyridine-2-carboxamide] | 10 to 25 | 2 to 10 |
| CNC1CN(c2cc(F)c(CCNC(=O)c3sc4nc(C)ccc4c3N)cc2F)C1 [Example I-199, 3-Amino-N-(2,5-difluoro-4-(3-(methylamino)azetidin-1-yl)phenethyl) -6-methylthieno[2,3-b]pyridine-2-carboxamide] | 0.2 to 2 | 0.2 to 2 |
| CCN[C@@H]1CCN(c2ccc(CCNC(=O)c3sc4nc(C)ccc4c3N)cc2)C1 [Example I-200, (R)-3-amino-N-(4-(3-(ethylamino)pyrrolidin-1-yl)phenethyl)-6-methylthieno[2,3-b]pyridine-2-carboxamide] | 0.2 to 2 | 0.2 to 2 |
| Cc1ccc2c(N)c(C(=O)NC[C@@H](C)c3ccc(N4CCNCC4)cc3)sc2n1 [Example I-203] | 2 to 10 | 0.2 to 2 |
| Cc1ccc2c(N)c(C(=O)NC[C@H](C)c3cc(F)c(N4CCNCC4)cc3F)sc2n1 [Example I-208] | 2 to 10 | 0.2 to 2 |
| Cc1ccc2c(N)c(C(=O)NCCc3cnc(N4CCNCC4)c(Cl)c3)sc2n1 [Example I-215, 3-Amino-N-(2-(5-chloro-6-(piperazin-1-yl)pyridin-3-yl)ethyl)-6-methylthieno[2,3-b]pyridine-2-carboxamide] | 2 to 10 | 0.2 to 2 |
| N#Cc1ccc2c(N)c(C(=O)NCCc3cc(F)c(N4CCNCC4)cc3F)sc2n1 [Example I-220, 3-Amino-6-cyano-N-(2,5-difluoro-4-(piperazin-1-yl)phenethyl)thieno[2,3-b]pyridine-2-carboxamide] | 2 to 10 | 2 to 10 |
| Nc1c(C(=O)NCCc2ccc(N3CCNCC3)cc2)sc2nc3c(cc12)CCC3O (stereo not drawn) [Example I-223, 3-Amino-7-hydroxy-N-(4-(piperazin-1-yl)phenethyl)-6,7-dihydro-5H-cyclopenta[b]thieno[3,2-e]pyridine-2-carboxamide] | 0.2 to 2 | 2 to 10 |
